Read-outs that look alike come from different tables or passages of the source.
What was measured:
[1] = biological target: STK4 (MST1) (Homo sapiens (Human), UniProt Q13043); experiment: Z-lyte biochemical IC50 assay (Invitrogen); details: ATP concentration matched the Km
Outline: (§1)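 FRET-based Z-lyte kinase assays run at Invitrogen, ATP at each kinase's Km; for STK4, 6.25-160 ng enzyme with 2 μM Ser/Thr 07 peptide in HEPES pH 7.5, MgCl2, EGTA, Brij-35, 1 h reaction then development reagent. 10-point 3-fold titration from 10 μM.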

[2] = biological target: STK24 (MST3) (Homo sapiens (Human), UniProt Q9Y6E0); experiment: Z-lyte biochemical IC50 assay (Invitrogen); details: ATP concentration matched the Km
Outline: as §1

[3] = biological target: RSK1 domain1 (Homo sapiens (Human), UniProt Q15418); experiment: KiNativ assay; type: binding; details: H929 live cell
Chain of RSK1 domain1 (Q15418 whole entry, the tested form may be a part): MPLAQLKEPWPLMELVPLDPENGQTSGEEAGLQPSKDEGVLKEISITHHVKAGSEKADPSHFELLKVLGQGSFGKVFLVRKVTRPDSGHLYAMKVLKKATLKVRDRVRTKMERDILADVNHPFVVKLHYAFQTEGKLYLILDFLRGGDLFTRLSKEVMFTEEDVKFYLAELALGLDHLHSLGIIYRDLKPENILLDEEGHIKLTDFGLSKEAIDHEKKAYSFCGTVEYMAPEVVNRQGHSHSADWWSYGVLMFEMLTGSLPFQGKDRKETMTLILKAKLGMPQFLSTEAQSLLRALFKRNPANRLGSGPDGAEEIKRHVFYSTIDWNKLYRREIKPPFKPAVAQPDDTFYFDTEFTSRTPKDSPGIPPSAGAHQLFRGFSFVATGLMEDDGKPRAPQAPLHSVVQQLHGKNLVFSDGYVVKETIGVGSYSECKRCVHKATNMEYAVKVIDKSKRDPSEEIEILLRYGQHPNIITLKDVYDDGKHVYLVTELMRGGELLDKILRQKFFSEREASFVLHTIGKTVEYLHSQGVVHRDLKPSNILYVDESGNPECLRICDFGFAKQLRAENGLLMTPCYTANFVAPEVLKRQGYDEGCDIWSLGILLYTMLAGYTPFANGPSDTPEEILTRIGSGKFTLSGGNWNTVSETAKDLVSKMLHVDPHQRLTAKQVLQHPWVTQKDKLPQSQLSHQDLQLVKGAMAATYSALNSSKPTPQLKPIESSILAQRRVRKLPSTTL
Experimental: (§2) Biochemical IC50s of the compounds of the present disclosure against various kinases were measured in a KiNativ assay. Compounds were screened in duplicate at 10 μM in H929 live cell. IC50 was measured via Mass spectroscopy (MS).

[4] = biological target: KHS1 (Homo sapiens (Human), UniProt Q9Y4K4); experiment: KiNativ assay; type: binding; details: H929 live cell
Experimental: as §2

[5] = test system: JNK1, JNK2, JNK3; experiment: KiNativ assay; type: binding; details: H929 live cell; for % inhibition (range): 10 μM
Experimental: as §2

[6] = biological target: PIP4K2A (Homo sapiens (Human), UniProt P48426); experiment: KiNativ assay; type: binding; details: H929 live cell
Experimental: as §2

[7] = biological target: p38a (Homo sapiens (Human), UniProt Q16539); experiment: KiNativ assay; type: binding; details: H929 live cell, read-out: % inhibition (range)
Chain of p38a (Q16539 whole entry): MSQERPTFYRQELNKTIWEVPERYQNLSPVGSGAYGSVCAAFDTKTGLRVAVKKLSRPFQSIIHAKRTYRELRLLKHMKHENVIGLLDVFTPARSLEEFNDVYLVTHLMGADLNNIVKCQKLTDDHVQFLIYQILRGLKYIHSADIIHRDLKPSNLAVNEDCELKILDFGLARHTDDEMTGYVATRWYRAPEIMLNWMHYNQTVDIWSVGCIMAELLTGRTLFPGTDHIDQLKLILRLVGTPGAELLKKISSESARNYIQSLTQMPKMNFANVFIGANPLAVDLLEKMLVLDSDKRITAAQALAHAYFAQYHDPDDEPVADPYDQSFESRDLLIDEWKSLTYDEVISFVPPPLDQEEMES
Outline: (§3)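 Live H929 cells, compound 10 μM, duplicate; KiNativ probe profiling; IC50 by MS.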

[8] = biological target: Erk2 (Homo sapiens (Human), UniProt P28482); experiment: KiNativ assay; type: binding; details: H929 live cell
Chain of Erk2 (P28482 whole entry): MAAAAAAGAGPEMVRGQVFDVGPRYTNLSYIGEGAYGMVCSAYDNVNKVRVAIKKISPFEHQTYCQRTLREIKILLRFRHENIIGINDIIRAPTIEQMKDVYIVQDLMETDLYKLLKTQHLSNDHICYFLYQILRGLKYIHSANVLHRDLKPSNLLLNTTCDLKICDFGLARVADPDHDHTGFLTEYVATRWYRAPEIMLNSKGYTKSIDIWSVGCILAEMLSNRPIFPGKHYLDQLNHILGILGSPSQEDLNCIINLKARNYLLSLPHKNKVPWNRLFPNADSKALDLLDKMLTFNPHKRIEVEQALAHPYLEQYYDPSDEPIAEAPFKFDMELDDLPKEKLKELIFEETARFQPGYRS
Experimental: as §2

[9] = biological target: CDC2 (Homo sapiens (Human), UniProt P06493); experiment: KiNativ assay; type: binding; details: H929 live cell
Chain of CDC2 (P06493 whole entry): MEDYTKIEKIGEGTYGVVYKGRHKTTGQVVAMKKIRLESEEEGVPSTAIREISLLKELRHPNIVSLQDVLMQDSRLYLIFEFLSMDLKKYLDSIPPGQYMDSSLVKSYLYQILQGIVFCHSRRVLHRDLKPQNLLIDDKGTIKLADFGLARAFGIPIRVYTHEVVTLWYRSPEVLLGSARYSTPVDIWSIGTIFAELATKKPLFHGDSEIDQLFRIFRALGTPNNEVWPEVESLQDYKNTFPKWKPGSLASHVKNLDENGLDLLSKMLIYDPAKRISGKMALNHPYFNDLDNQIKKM
Experimental: as §2

[10] = biological target: CLK2 (Homo sapiens (Human), UniProt P49760); experiment: KiNativ assay; type: binding; details: H929 live cell
Experimental: as §2

[11] = biological target: IKKb (Homo sapiens (Human), UniProt O14920); experiment: KiNativ assay; type: binding; details: H929 live cell
Chain of IKKb (O14920 whole entry): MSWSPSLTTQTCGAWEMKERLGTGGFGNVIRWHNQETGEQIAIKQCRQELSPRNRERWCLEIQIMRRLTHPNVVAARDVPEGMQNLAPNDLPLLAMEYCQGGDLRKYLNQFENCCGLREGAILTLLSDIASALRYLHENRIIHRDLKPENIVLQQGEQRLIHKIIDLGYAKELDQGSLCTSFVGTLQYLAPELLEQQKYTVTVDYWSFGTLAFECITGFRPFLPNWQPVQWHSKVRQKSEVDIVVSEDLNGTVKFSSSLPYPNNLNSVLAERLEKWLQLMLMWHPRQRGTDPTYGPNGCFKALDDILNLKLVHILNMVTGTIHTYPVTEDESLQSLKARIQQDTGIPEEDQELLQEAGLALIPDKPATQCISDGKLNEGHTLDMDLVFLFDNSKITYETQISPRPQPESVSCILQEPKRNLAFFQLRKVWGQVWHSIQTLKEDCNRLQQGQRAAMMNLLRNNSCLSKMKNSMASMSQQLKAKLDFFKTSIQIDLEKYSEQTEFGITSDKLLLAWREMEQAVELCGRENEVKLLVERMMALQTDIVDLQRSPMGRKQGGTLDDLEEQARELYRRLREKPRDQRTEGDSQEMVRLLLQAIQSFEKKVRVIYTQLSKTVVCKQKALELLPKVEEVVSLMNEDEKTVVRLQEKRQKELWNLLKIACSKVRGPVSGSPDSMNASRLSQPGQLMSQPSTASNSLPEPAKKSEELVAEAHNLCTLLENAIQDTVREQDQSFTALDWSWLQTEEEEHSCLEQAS
Experimental: as §2

[12] = biological target: PHKg2 (Homo sapiens (Human), UniProt P15735); experiment: KiNativ assay; type: binding; details: H929 live cell
Experimental: as §2

[13] = biological target: MAP2K2 (Homo sapiens (Human), UniProt P36507); experiment: KiNativ assay; type: binding; details: H929 live cell
Chain of MAP2K2 (P36507 whole entry): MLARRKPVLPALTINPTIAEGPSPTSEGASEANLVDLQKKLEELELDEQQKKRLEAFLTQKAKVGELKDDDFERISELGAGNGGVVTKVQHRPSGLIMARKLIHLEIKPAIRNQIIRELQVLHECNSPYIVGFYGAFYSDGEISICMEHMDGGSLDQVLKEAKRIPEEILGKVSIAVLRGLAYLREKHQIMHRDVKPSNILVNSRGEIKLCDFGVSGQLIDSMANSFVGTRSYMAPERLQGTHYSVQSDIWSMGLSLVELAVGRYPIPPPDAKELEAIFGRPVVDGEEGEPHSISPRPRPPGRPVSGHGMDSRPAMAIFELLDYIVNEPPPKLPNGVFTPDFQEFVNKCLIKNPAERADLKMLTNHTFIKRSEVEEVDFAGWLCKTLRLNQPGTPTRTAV
Outline: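 IC50 values came from MS analysis in a KiNativ format, following compound exposure of live H929 cells at 10 μM, tested twice.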

[14] = biological target: NEK4 (Homo sapiens (Human), UniProt P51957); experiment: KiNativ assay; type: binding; details: H929 live cell
Chain of NEK4 (P51957 whole entry): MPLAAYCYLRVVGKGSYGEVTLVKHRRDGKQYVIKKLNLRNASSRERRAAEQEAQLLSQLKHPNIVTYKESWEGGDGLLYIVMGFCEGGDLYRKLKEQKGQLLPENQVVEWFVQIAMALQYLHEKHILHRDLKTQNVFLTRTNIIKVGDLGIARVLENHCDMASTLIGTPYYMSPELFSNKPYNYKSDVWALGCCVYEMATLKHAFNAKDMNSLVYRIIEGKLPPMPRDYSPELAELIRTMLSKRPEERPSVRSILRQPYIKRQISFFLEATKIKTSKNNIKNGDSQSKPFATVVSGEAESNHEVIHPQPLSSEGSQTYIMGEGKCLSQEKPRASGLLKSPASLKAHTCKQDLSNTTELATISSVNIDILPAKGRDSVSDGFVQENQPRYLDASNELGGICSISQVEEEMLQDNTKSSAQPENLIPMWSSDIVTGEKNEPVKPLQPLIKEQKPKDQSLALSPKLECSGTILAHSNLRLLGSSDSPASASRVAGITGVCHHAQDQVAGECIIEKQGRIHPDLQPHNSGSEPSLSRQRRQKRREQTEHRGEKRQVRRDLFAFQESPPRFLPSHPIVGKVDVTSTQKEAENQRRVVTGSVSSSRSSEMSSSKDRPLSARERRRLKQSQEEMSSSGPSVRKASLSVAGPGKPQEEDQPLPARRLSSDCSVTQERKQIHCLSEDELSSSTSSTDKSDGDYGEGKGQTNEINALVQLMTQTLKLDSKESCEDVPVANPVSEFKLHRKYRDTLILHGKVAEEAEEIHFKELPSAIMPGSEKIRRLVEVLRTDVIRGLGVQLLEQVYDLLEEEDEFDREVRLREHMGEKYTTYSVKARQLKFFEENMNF
Experimental: as §2

[15] = biological target: IRAK1 (Homo sapiens (Human), UniProt P51617); experiment: KiNativ assay; type: binding; details: H929 live cell
Experimental: as §2

[16] = biological target: PDK1 (Homo sapiens (Human), UniProt O15530); experiment: KiNativ assay; type: binding; details: H929 live cell
Outline: as §3

[17] = biological target: CHK2 (Homo sapiens (Human), UniProt O96017); experiment: KiNativ assay; type: binding; details: H929 live cell
Chain of CHK2 (O96017 whole entry): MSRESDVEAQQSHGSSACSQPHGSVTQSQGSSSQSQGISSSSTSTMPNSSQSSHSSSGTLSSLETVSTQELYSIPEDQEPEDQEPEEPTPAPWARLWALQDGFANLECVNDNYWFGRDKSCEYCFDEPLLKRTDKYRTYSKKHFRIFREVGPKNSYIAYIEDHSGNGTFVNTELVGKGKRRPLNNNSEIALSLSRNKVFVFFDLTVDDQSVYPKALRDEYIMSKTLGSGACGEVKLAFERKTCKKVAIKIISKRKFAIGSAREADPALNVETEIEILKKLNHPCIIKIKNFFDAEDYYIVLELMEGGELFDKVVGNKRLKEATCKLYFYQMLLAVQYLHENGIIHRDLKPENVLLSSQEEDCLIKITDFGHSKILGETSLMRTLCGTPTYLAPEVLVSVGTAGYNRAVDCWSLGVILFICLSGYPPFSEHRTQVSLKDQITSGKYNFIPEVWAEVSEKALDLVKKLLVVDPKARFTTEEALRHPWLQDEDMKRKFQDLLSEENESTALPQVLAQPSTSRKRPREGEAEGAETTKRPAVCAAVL
Experimental: as §2

[18] = biological target: CaMK2d (Homo sapiens (Human), UniProt Q13557); experiment: KiNativ assay; type: binding; details: H929 live cell
Experimental: as §2

[19] = test system: CDK11, CDK8; experiment: KiNativ assay; type: binding; details: H929 live cell; for % inhibition (range): 10 μM
Experimental: as §2

[20] = biological target: MARK4 (Homo sapiens (Human), UniProt Q96L34); experiment: KiNativ assay; type: binding; details: H929 live cell
Experimental: as §2

Chain of STK4 (MST1) (Q13043 whole entry): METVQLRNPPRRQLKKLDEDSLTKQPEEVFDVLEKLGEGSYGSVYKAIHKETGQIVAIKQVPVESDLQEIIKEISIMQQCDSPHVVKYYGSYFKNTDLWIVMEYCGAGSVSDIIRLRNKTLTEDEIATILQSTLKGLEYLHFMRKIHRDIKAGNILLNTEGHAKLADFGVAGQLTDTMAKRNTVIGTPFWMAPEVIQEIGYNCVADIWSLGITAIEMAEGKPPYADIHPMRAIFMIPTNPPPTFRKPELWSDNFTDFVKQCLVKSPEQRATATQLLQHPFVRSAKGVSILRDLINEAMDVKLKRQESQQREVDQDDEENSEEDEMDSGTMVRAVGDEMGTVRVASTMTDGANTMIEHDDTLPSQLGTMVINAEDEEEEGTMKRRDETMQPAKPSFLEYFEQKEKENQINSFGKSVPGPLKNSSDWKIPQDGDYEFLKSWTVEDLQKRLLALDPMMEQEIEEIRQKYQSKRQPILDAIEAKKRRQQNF

Structure (SMILES) | IC50 [1] | IC50 [2] | inhibition at 10 µM ([3]; read-out: % inhibition (range)) | inhibition at 10 µM ([3]; read-out: inhibition (10 μM)) | inhibition at 10 µM ([4]; read-out: % inhibition (range)) | inhibition at 10 µM ([4]; read-out: inhibition (10 μM)) | % inhibition (range) [5] | inhibition (10 μM) [5] | inhibition at 10 µM ([6]; read-out: % inhibition (range)) | inhibition at 10 µM ([6]; read-out: inhibition (10 μM)) | inhibition at 10 µM [7] | inhibition at 10 µM ([8]; read-out: % inhibition (range)) | inhibition at 10 µM ([8]; read-out: inhibition (10 μM)) | inhibition at 10 µM ([9]; read-out: % inhibition (range)) | inhibition at 10 µM ([9]; read-out: inhibition (10 μM)) | inhibition at 10 µM ([10]; read-out: % inhibition (range)) | inhibition at 10 µM ([10]; read-out:) | inhibition at 10 µM ([11]; read-out: % inhibition (range)) | inhibition at 10 µM ([11]; read-out: inhibition (10 μM)) | inhibition at 10 µM ([12]; read-out: % inhibition (range)) | other results
Nc1ncc(-c2cc([N+](=O)[O-])ccc2F)cc1-c1ccc2c(c1)CCNC2=O [Compound I-1, 6-(2-amino-5-(2-fluoro-5-nitrophenyl)pyridin-3-yl)-3,4-dihydroisoquinolin-1(2H)-one] | < 40 nM | > 900 nM |  |  |  |  |  |  |  |  |  |  |  |  |  |  |  |  |  |  | 
Nc1ncc(-c2cccc([N+](=O)[O-])c2F)cc1-c1ccc2c(c1)CCNC2=O [Compound I-9, 6-(2-amino-5-(2-fluoro-3-nitrophenyl)pyridin-3-yl)-3,4-dihydroisoquinolin-1(2H)-one] | < 40 nM | > 900 nM | 0% | 24% | 75 to 90% | 79.5% | 0.0% | −24.2% | 0% | 10.2% | 75 to 90% | 50 to 75% | 60.2% | 0% | -24.7% | > 90% | > 95% | 0% | -15% | 0% | inhibition at 10 µM ([12]; read-out: inhibition (10 μM)): -30.7%; inhibition at 10 µM ([13]; read-out: % inhibition (range)): 0%; inhibition at 10 µM ([13]; read-out: inhibition (10 μM)): -8.7%; inhibition at 10 µM ([14]; read-out: % inhibition (range)): 50 to 75%; inhibition at 10 µM ([14]; read-out: inhibition (10 μM)): 67%; inhibition at 10 µM ([15]; read-out: % inhibition (range)): 75 to 90%; inhibition at 10 µM ([15]; read-out: inhibition (10 μM)): 82.6%; inhibition at 10 µM ([16]; read-out: % inhibition (range)): 0%; inhibition at 10 µM ([16]; read-out: inhibition (10 μM)): 28.1%; inhibition at 10 µM ([17]; read-out: % inhibition (range)): 75 to 90%; inhibition at 10 µM ([17]; read-out: inhibition (10 μM)): 80.9%; inhibition at 10 µM ([18]; read-out: % inhibition (range)): 0%; inhibition at 10 µM ([18]; read-out: inhibition (10 μM)): -5.7%; inhibition (10 μM) [19]: 35.5%; inhibition at 10 µM ([20]; read-out: % inhibition (range)): 75 to 90%; inhibition at 10 µM ([20]; read-out: inhibition (10 μM)): > 75%
Nc1ncc(-c2cccc3ncsc23)cc1-c1ccc2c(c1)CCNC2=O [Compound I-13, 6-(2-amino-5-(benzo[d]thiazol-7-yl)pyridin-3-yl)-3,4-dihydroisoquinolin-1(2H)-one] | < 40 nM | > 900 nM | 0% | 3.3% | 35 to 50% | 47.7% | 0.0% | 6.0% | 0% | 2.3% | 0% | 50 to 75% | 74.6% | 0% | -15% | 0% | 19.1% | 0% | -3.3% | 0% | inhibition at 10 µM ([12]; read-out: inhibition (10 μM)): -27.5%; inhibition at 10 µM ([13]; read-out: % inhibition (range)): 0%; inhibition at 10 µM ([13]; read-out: inhibition (10 μM)): -36.7%; inhibition at 10 µM ([14]; read-out: % inhibition (range)): 0%; inhibition at 10 µM ([14]; read-out: inhibition (10 μM)): 4.7%; inhibition at 10 µM ([15]; read-out: % inhibition (range)): 0%; inhibition at 10 µM ([15]; read-out: inhibition (10 μM)): 28.5%; inhibition at 10 µM ([16]; read-out: % inhibition (range)): 0%; inhibition at 10 µM ([16]; read-out: inhibition (10 μM)): 17.5%; inhibition at 10 µM ([17]; read-out: % inhibition (range)): 0%; inhibition at 10 µM ([17]; read-out: inhibition (10 μM)): 19.7%; inhibition at 10 µM ([18]; read-out: % inhibition (range)): 0%; inhibition at 10 µM ([18]; read-out: inhibition (10 μM)): -4.3%; % inhibition (range) [19]: 50-75%; inhibition (10 μM) [19]: 59.3%; inhibition at 10 µM ([20]; read-out: inhibition (10 μM)): 39.8%
CN(C1CC1)S(=O)(=O)c1ccc(-c2cnc(N)c(-c3ccc4c(c3)CCNC4=O)c2)c(F)c1 [Compound I-28, 4-(6-amino-5-(1-oxo-1,2,3,4-tetrahydroisoquinolin-6-yl)pyridin-3-yl)-N-cyclopropyl-3-fluoro-N-methylbenzenesulfonamide] | < 40 nM | 40 to 200 nM | 0% | 15.6% | 75 to 90% | 75.6% | 0.0% | −12.9% | 0% | 3.2% | 0% | 0% | 13.9% | 0% | -26.5% | 35 to 50% | 42.7% | 0% | 6.8% | 0% | inhibition at 10 µM ([12]; read-out: inhibition (10 μM)): 17.3%; inhibition at 10 µM ([13]; read-out: % inhibition (range)): 0%; inhibition at 10 µM ([13]; read-out: inhibition (10 μM)): -23.7%; inhibition at 10 µM ([14]; read-out: % inhibition (range)): 0%; inhibition at 10 µM ([14]; read-out: inhibition (10 μM)): -2.8%; inhibition at 10 µM ([15]; read-out: % inhibition (range)): 50 to 75%; inhibition at 10 µM ([15]; read-out: inhibition (10 μM)): 67.8%; inhibition at 10 µM ([16]; read-out: % inhibition (range)): 0%; inhibition at 10 µM ([16]; read-out: inhibition (10 μM)): 5.9%; inhibition at 10 µM ([17]; read-out: % inhibition (range)): 0%; inhibition at 10 µM ([17]; read-out: inhibition (10 μM)): 6.8%; inhibition at 10 µM ([18]; read-out: % inhibition (range)): 0%; inhibition at 10 µM ([18]; read-out: inhibition (10 μM)): -31%; % inhibition (range) [19]: 0.0%; inhibition (10 μM) [19]: 4.9%; inhibition at 10 µM ([20]; read-out: % inhibition (range)): 0%; inhibition at 10 µM ([20]; read-out: inhibition (10 μM)): 23.1%

Reference: patent publication US10710978B2, “STK4 inhibitors for treatment of hematologic malignancies” (Dana-Farber Cancer Institute, Inc., priority 2015, dated 2020)
